29 molecules from BindingDB's records for doi:10.1021/jm00096a017 (Kyowa Hakko Kogyo, 1992) can be followed below.

This experiment is described as follows: Compound was tested for its binding affinity at Thromboxane A2/ Prostaglandin H2 receptor by measuring its ability to displace [3H]U-46619 from guinea pig platelets.
As to `Cc1cc2ncn(C/C=C3\c4ccccc4COc4cc(C(=O)O)ccc43)c2cc1C`, the inhibition constant Ki (as a rule, the equilibrium dissociation constant of an inhibitor or competing ligand from its target) amounted to 1800 nM.
Take `O=C(O)c1ccc2c(c1)/C(=C/Cn1cnc(-c3ccccc3)c1-c1ccccc1)c1ccccc1CO2`: the inhibition constant Ki came out at 164 nM.
Regarding `O=C(O)c1ccc2c(c1)/C(=C/Cn1cnc3ccc(Cl)cc31)c1ccccc1CO2`, the Ki turned out to be 15 nM.
For `O=C(O)c1ccc2c(c1)/C(=C/Cn1cnc3cc(C(=O)NCc4ccccc4)ccc31)c1ccccc1CO2`, the inhibitory constant (Ki) worked out at 0.91 nM.
In turn, `Cc1cc2ncn(C/C=C3\c4ccccc4COc4ccc(CC(=O)O)cc43)c2cc1C` showed a Ki of 63 nM.
As for `Cc1cc2ncn(C/C=C3/c4ccccc4COc4ccc(C(=O)O)cc43)c2cc1C`, the figure is 64 nM; as for `O=C(O)c1ccc2c(c1)/C(=C/Cn1cnc3cc4ccccc4cc31)c1ccccc1CO2`, 280 nM.
`Cc1ccc2ncn(C/C=C3\c4ccccc4COc4ccc(C(=O)O)cc43)c2c1` returned an inhibition constant Ki of 23 nM.
`Cc1cc2ncn(C/C=C3\c4ccccc4COc4ccc(C(=O)O)cc43)c2cc1C` [11-[2-(5,6-Dimethyl-benzoimidazol-1-yl)-ethylidene]-6,11-dihydro-dibenzo[b,e]oxepine-2-carboxylic acid (0.5H2O)]: affinity was put at a Ki of 2.7 nM.
As to `Cc1ccc2c(c1)ncn2C/C=C1\c2ccccc2COc2ccc(C(=O)O)cc21`, the Ki came to 15 nM. This Ki lies about 5.6-fold higher than the previous one.
As for `O=C(O)c1ccc2c(c1)/C(=C/CNS(=O)(=O)c1ccccc1)c1ccccc1CO2`, the figure is 11 nM; as for `O=C(O)c1ccc2c(c1)/C(=C/Cn1cnc3cc(C(=O)O)ccc31)c1ccccc1CO2`, 30 nM.
With `COc1cc(OC)c2c(c1)ncn2C/C=C1\c2ccccc2COc2ccc(C(=O)O)cc21` the figure was 6.1 nM.
As for `O=C(O)c1ccc2c(c1)/C(=C/Cn1cnc3cc4c(cc31)OCO4)c1ccccc1CO2`, the figure is 2.7 nM; as for `O=C(O)c1ccc2c(c1)/C(=C/Cn1cnc3cc([N+](=O)[O-])ccc31)c1ccccc1CO2`, 1.8 nM; as for `O=C(O)c1ccc2c(c1)/C(=C/Cn1cnc3cc(F)ccc31)c1ccccc1CO2`, 8.3 nM.
In turn, `Cc1cc2ncn(C/C=C3\c4cc(C(=O)O)ccc4COc4ccccc43)c2cc1C` had a Ki of 1300 nM. Compared with the last molecule, the Ki is about 160-fold higher.
As for `Cc1ccc2c(ncn2C/C=C2\c3ccccc3COc3ccc(C(=O)O)cc32)c1C`, the figure is 3.6 nM; as for `O=C(O)c1ccc2c(c1)/C(=C/Cn1cnc3cc(Cl)ccc31)c1ccccc1CO2`, 6 nM; as for `O=C(O)c1ccc2c(c1)/C(=C/Cn1cnc3ccc(C(O)c4ccccc4)cc31)c1ccccc1CO2` (centres undefined), 17 nM.
As for `O=C(O)c1ccc2c(c1)/C(=C/Cn1cnc3cc(C(O)c4ccccc4)ccc31)c1ccccc1CO2` (centres undefined), the figure is 6.1 nM; as for `O=C(O)c1ccc2c(c1)/C(=C/Cn1cnc3cc(C(F)(F)F)ccc31)c1ccccc1CO2`, 2.2 nM; as for `Cc1cc2ncn(CCC3c4ccccc4COc4ccc(C(=O)O)cc43)c2cc1C` (centres undefined), 18 nM.
As to `O=C(O)c1ccc2c(c1)/C(=C\Cn1cnc3ccccc31)c1ccccc1CO2`, the Ki is 15 nM.
With `Cc1cccc2c1ncn2C/C=C1\c2ccccc2COc2ccc(C(=O)O)cc21`, the Ki came to 17 nM.
`COc1cc2ncn(C/C=C3\c4ccccc4COc4ccc(C(=O)O)cc43)c2cc1OC` had a Ki of 3.4 nM. Compared with the last molecule, the Ki is about 5-fold lower.
The molecule `COc1ccc2ncn(C/C=C3\c4ccccc4COc4ccc(C(=O)O)cc43)c2c1` displayed a Ki of 12 nM.
For `COc1cc(OC)c2ncn(C/C=C3\c4ccccc4COc4ccc(C(=O)O)cc43)c2c1`, affinity was put at a Ki of 88 nM. Compared with the last molecule, the Ki is about 7.3-fold higher.
With `COc1ccc2c(c1)ncn2C/C=C1\c2ccccc2COc2ccc(C(=O)O)cc21` the figure was 3.2 nM.
